Laboratory results reported in patent US20190330224A1, “ACC INHIBITORS AND USES THEREOF” (Gilead Apollo, LLC, priority 2015, published 2019).
Converted amounts (≈) assume the structure as drawn.

Columns and labels:
[1] = compound concentration 10 ppm, foliar spray, evaluated 7 days after inoculation
Botrtyis cinerea (Bc) = assay: Growth inhibition assay of fungal pathogens, Bc; type: cell-based; conditions: 48 hours; read-out: Concentration at 90% Inhibition, Bc
Method: (§1) Compounds of the present invention were evaluated in a growth inhibition assay to determine the ability to control the growth of fungal pathogens, such as Botrtyis cinerea (Bc). Collectotrichum graminicola (Cg), Diplodia maydis (Dm), Fusarium moniliforme (Fm), Fusarium virguliforme (Fv), Phytophthora capsici (Pc), Rhizoctonia solani (Rs), and Septoria tritici (St). Compounds to be tested were dissolved in DMSO at 2.5 mg/ml to produce compound stock solutions (“stocks”). Stocks were diluted with DMSO by a five-fold dilution in a 96-well stock plate, and two sets of final concentrations of 50, 10, and 2 ppm or 2, 0.4, and 0.08 ppm were obtained in vitro. A set of positive controls was also prepared, with various concentrations of Soraphen (2, 0.4, and 0.08 ppm), Metalaxyl (1.1, 0.22, and 0.04 ppm), and Metconazole (2, 0.4, and 0.08 ppm or 0.2, 0.04, and 0.008 ppm) after the five-fold dilutions. Negative controls on each plate included 2% DMSO, water, and a blank (media+2% DMSO). Fungal spores were isolated from previously sub-cultured plates of Botrtyis cinerea (Bc), Collectotrichum graminicola (Cg), Diplodia maydis (Dm), Fusarium moniliforme (Fm), Fusarium virguliforme (Fv), Phytophthora capsici (Pc), and Septoria tritici (St). The isolated spores were diluted to individual concentrations with a 17% V8 liquid media. For Rhizoctonia solani (Rs) and Pythium irregulare, 1.5 mm mycelial plugs were used in place of spores and ¼ Potato Dextrose Broth (PDB) was used for dilution. The spore concentrations and plug sizes were based on growth curves generated at 48 hours for each pathogen. In a second 96-well plate, the spores or mycelial plugs, media, diluted compound solutions, and controls were combined. Once the compound was added, a true final concentration of compound in each well was measured by an OD600 reading, which adjusted for any compound precipitation that might have occurred in the well. Plate readings were repeated at both 24 and 48 hours. The blank negative control was used as a background subtraction. Additional visual ratings were performed at both 24 and 48 hours for checking on precipitation and confirming efficacy. Visual and OD600 ratings of the compounds at 48 hours were compared to the 2% DMSO negative control, and the percent of pathogen growth inhibition was determined based on those values.

Fungal ACC2 = Fungal ACC2 (UniProt Q00955); conditions: read-out: Fungal ACC2 (IC50, in vitro ACC2 inhibition)
Fungal ACC2, sequence (Q00955 whole entry): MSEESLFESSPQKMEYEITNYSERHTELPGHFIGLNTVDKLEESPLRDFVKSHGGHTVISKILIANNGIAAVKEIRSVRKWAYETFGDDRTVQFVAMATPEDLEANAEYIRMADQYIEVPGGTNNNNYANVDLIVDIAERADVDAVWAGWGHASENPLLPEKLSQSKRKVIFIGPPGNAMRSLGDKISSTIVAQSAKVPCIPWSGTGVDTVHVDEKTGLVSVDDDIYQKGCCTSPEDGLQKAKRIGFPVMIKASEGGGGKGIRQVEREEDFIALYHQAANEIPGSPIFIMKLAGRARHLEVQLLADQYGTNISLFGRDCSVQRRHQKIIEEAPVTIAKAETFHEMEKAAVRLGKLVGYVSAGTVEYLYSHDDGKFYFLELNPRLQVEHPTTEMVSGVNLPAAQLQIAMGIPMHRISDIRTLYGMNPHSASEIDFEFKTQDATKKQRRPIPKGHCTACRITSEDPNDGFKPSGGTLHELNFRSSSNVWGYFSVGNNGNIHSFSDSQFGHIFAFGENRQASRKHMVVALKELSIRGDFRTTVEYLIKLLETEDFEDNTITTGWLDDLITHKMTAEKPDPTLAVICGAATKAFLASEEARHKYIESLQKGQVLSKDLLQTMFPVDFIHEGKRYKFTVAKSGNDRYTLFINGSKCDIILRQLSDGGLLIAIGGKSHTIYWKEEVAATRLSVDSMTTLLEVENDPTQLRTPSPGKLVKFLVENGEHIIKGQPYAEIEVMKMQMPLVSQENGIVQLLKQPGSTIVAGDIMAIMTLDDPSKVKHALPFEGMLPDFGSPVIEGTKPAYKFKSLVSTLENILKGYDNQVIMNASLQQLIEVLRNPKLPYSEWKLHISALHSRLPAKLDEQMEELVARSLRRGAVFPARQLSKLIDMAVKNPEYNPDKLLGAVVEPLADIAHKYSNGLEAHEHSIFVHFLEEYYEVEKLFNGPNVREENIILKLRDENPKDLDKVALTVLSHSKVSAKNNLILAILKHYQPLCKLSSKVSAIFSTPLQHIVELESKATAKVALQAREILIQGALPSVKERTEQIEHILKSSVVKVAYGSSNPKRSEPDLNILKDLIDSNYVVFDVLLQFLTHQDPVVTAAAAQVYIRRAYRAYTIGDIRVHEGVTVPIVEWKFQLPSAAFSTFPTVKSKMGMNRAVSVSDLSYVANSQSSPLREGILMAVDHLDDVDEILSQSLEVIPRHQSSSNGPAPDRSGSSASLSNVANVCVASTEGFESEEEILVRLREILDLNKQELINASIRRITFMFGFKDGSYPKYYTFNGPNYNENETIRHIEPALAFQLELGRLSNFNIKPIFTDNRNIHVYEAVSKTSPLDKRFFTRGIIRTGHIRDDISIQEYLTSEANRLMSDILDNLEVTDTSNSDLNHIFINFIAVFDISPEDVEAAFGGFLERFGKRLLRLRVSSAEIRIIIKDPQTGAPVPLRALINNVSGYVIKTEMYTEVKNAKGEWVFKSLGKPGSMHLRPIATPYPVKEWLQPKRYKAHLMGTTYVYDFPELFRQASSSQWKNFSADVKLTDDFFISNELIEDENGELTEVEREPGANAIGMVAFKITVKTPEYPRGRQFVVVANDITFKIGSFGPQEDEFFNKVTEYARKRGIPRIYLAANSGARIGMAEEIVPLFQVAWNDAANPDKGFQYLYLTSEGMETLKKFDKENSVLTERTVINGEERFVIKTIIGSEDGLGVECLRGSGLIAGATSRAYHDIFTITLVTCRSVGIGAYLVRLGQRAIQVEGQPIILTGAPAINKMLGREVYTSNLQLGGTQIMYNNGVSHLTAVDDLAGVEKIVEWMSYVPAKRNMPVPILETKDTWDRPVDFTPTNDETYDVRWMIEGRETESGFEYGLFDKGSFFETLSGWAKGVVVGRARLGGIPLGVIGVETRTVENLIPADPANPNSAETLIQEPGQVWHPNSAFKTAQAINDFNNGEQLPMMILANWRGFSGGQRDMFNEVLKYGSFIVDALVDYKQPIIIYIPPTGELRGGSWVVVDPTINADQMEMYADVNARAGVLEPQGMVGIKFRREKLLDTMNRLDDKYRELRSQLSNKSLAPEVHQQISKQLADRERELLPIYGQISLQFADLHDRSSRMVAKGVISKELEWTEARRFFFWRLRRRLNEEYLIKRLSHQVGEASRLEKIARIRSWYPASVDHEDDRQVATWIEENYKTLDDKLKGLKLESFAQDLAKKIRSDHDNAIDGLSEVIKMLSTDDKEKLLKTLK

[2] = tested on: Fusarium virguliforme (Fv); assay: Growth inhibition assay of fungal pathogens, Fv; type: cell-based; conditions: 48 hours, read-out: Concentration at 90% Inhibition, Fv
Method: as §1

[3] = tested on: C. parapsilosis ATCC 22019; assay: Anti-Fungal Activity Assay (broth microtiter MIC), C. parapsilosis; type: cell-based, Candida parapsilosis; conditions: Lodderomyces parapsilosis, ATCC22019, 48 h, 3 replicates; MIC recorded at 48 h; read-out: MIC C. parapsilosis ATCC 22019
Summary of the method: (§2)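 Susceptibility testing used direct colony suspensions in RPMI 1640+MOPS from Sabouraud dextrose agar grown at 35° C. Endpoints were visual MICs at 48 h under CLSI M27-A3 microtiter conditions, plus a 24 h reading for soraphen.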

[4] = tested on: Fusarium moniliforme (Fm); assay: Growth inhibition assay of fungal pathogens, Fm; type: cell-based; conditions: Fusarium verticillioides; 48 hours; read-out: Concentration at 90% Inhibition, Fm
Method: as §1

Human ACC2 = Human ACC2 (Homo sapiens, UniProt O00763); assay: In vitro ACC2 inhibition assay (ADP-Glo), human ACC2; type: biochemical; conditions: 5 nM ACC2, 20 μM ATP, 20 μM acetyl-CoA
Human ACC2, sequence (O00763 whole entry): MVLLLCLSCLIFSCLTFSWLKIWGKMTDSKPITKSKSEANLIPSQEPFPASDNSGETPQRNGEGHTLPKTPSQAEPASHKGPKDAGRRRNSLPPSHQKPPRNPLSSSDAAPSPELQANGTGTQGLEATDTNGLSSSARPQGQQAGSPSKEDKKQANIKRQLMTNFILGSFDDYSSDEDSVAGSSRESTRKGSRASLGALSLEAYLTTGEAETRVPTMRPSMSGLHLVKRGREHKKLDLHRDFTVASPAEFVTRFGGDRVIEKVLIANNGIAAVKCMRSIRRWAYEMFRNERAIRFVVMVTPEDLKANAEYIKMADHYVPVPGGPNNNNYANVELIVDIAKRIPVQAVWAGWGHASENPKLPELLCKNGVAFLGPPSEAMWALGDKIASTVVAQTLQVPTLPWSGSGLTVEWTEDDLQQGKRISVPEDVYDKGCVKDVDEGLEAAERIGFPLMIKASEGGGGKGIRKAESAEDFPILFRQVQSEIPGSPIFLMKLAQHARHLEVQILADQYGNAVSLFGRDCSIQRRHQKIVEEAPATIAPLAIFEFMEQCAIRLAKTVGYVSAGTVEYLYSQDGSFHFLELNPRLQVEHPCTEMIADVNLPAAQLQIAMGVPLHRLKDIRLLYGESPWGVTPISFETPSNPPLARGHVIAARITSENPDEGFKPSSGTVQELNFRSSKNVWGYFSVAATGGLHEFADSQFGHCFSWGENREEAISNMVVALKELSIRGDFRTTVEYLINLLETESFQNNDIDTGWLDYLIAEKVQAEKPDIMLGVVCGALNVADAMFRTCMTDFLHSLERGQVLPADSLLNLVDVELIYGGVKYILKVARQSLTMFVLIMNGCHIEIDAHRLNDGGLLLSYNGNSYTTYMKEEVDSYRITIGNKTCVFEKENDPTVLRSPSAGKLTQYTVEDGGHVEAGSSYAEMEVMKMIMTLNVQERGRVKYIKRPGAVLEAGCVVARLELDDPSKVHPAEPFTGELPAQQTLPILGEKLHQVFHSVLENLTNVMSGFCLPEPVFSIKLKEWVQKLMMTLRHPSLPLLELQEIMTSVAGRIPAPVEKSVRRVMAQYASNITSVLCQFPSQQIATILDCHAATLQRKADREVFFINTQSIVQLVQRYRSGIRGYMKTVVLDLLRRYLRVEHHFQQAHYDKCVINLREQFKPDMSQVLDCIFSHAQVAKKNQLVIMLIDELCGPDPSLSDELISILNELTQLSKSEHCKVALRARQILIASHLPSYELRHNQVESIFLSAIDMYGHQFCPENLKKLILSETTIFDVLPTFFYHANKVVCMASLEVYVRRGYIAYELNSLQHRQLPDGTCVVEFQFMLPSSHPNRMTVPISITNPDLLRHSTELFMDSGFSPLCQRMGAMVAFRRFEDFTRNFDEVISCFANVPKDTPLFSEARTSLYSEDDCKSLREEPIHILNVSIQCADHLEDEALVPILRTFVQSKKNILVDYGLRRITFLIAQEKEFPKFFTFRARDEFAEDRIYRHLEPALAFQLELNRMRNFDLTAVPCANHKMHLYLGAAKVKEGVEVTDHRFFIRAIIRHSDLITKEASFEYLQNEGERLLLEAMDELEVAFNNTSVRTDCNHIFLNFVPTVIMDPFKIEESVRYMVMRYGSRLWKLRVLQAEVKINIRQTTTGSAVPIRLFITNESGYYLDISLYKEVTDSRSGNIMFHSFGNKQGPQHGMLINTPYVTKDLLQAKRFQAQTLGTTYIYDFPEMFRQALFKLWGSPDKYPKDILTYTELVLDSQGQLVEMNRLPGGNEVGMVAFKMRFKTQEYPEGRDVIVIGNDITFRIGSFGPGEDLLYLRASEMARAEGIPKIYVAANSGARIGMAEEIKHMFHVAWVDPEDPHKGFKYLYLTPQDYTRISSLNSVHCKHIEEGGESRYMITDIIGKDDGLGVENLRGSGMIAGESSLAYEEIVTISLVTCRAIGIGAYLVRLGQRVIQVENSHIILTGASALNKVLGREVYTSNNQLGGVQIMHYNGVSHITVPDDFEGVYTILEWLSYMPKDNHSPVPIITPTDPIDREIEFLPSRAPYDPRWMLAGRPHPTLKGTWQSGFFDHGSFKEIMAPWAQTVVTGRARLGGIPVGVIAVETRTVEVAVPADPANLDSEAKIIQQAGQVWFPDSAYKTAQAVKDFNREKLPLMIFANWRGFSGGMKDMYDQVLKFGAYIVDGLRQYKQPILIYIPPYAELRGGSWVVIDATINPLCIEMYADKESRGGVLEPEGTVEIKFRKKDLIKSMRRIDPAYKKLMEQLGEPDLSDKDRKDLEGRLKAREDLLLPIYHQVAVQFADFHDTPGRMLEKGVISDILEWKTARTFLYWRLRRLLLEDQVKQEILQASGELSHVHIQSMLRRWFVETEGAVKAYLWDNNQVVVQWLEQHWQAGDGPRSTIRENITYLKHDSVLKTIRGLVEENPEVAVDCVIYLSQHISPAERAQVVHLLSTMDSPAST

[5] = tested on: Phytophthora capsici (Pc); assay: Growth inhibition assay of fungal pathogens, Pc; type: cell-based; conditions: 48 hours, read-out: Concentration at 90% Inhibition, Pc
Method: as §1

[6] = tested on: Collectotrichum graminicola (Cg); assay: Growth inhibition assay of fungal pathogens, Cg; type: cell-based; conditions: 48 hours; read-out: Concentration at 90% Inhibition, Cg
Method: as §1

C. albicans ATCC 90028 = assay: Anti-Fungal Activity Assay (broth microtiter MIC), C. albicans; type: cell-based, Candida albicans; conditions: Candida albicans, ATCC90028, 48 h, 3 replicates; MIC recorded at 48 h; read-out: MIC C. albicans ATCC 90028
Summary of the method: as §2

Septoria tritici (St) = assay: Growth inhibition assay of fungal pathogens, St; type: cell-based; conditions: Zymoseptoria tritici; 48 hours; read-out: Concentration at 90% Inhibition, St
Method: as §1

Diplodia maydis (Dm) = assay: Growth inhibition assay of fungal pathogens, Dm; type: cell-based; conditions: Stenocarpella maydis; 48 hours; read-out: Concentration at 90% Inhibition, Dm
Method: as §1

[7] = tested on: Blumeria graminis f sp. hordei; assay: Foliar protection test, barley powdery mildew control; type: in vivo, Blumeria graminis f sp. hordei on Hordeum vulgare cv. Perry; conditions: 168 h, compound concentration 50 ppm, foliar spray, evaluated 7 days after inoculation, read-out: Barley Powdery Mildew Control at 50 ppm
Method: Compounds of the present invention were evaluated in a foliar protection test to determine the ability to control barley powdery mildew. Plants (Hordeum vulgare cv. Perry) were grown for 6 days in 2-inch square pots containing Metromix 200 medium amended with fertilizer. For propagation, plants were maintained in a growth chamber at conditions of 20 to 21° C., 16 hour light cycle, 400 uM of light, 70% humidity, and with sub-irrigation as needed. After inoculation with the pathogen of Blumeria graminis f sp. hordei, plants were kept at conditions of 20 to 22° C., 70% relative humidity, and 200 uM of light to facilitate infection and disease development. At 6 days after planting (1st true leaf fully expanded), the test compounds were dissolved in a solution of 5% acetone and 0.005% Tween 80 surfactant. An atomizer was used for applying the solution onto both sides of the leaves until thoroughly wetted. The amount of the compound applied to the leaves was typically 200, 100, 50, 10, or 2 ppm, but it may vary. At 24 hours after treatment, the plants were moved to a cooler chamber and inoculated by shaking well-colonized, untreated stock plants above the treated plants. This allowed producing a settling cloud of spores and resulting in uniform infection. Efficacy was evaluated in 7 days later by examining leaves for colonization and growth of mildew. Table 5 lists the results of barley powdery mildew control at a compound concentration of 50 ppm or 10 ppm. Compounds having an activity designated as “AA” provided a compound having >85% control of barley powdery mildew; compounds having an activity designated as “A” provided a compound having from 70% to 84% control of barley powdery mildew; compounds having an activity designated as “B” provided a compound having from 50 to 69% control of barley powdery mildew; compounds having an activity designated as “C” provided a compound having from 25 to 49% control of barley powdery mildew; and compounds having an activity designated as “D” provided a compound having <25% control of barley powdery mildew.

Rhizoctonia solani (Rs) = assay: Growth inhibition assay of fungal pathogens, Rs; type: cell-based; conditions: 48 hours, read-out: Concentration at 90% Inhibition, Rs
Method: as §1

C. krusei ATCC 6258 = assay: Anti-Fungal Activity Assay (broth microtiter MIC), C. krusei; type: cell-based, Candida krusei; conditions: Pichia kudriavzevii, ATCC6258, 48 h, 3 replicates; MIC recorded at 48 h; read-out: MIC C. krusei ATCC 6258
Summary of the method: as §2

SMILES	Barley Powdery Mildew Control at 10 ppm [1]	IC90 (Botrtyis cinerea (Bc)) [mg/L]	IC50 (Fungal ACC2) [µM]	IC90 [2] [mg/L]	MIC [3] [mg/L]	IC90 [4] [mg/L]	IC50 (Human ACC2) [µM]	IC90 [5] [mg/L]	IC90 [6] [mg/L]	MIC (C. albicans ATCC 90028) [mg/L]	IC90 (Septoria tritici (St)) [mg/L]	IC90 (Diplodia maydis (Dm)) [mg/L]	pest or weed control at 50 ppm [7] [%]	IC90 (Rhizoctonia solani (Rs)) [mg/L]	MIC (C. krusei ATCC 6258) [mg/L]
COCCO[C@@H](Cn1c(=O)n([C@H]2CCN(C)C2=O)c(=O)c2c(C)c(-n3nccn3)sc21)c1cc(F)ccc1OC [Compound I-27, 1-((R)-2-(5-fluoro-2-methoxyphenyl)-2-(2-methoxy-ethoxy)ethyl)-5-methyl-3-((S)-1-methyl-2-oxopyrrolidin-3-yl)-6-(2H-1,2,3-triazol-2-yl)thieno[2,3-d]pyrimidine-2,4(1H,3H)-dione]	D (provided a compound having <25% control of barley powdery mildew)	2 (≈ 3.49 µM)	0.002 to 0.01	10 (≈ 17.5 µM)	2.1 to 4 (≈ 3.67 to 6.99 µM)	2 (≈ 3.49 µM)	0.01 to 0.1	> 50	> 50	2.1 to 4 (≈ 3.67 to 6.99 µM)	> 50	> 50	50 to 69	> 50	2.1 to 4 (≈ 3.67 to 6.99 µM)
COCCO[C@@H](Cn1c(=O)n([C@H]2CCNC2=O)c(=O)c2c(C)c(-n3cccn3)sc21)c1cc(F)ccc1OC [Compound I-41, 1-((R)-2-(5-fluoro-2-methoxyphenyl)-2-(2-methoxy-ethoxy)ethyl)-5-methyl-3-((S)-2-oxopyrrolidin-3-yl)-6-(I H-pyrazol-1-yl)thieno[2,3-d]pyrimidine-2,4(1H,3H)-dione]	D (provided a compound having <25% control of barley powdery mildew)	> 50	0.01 to 0.1	> 50	2.1 to 4 (≈ 3.77 to 7.17 µM)	> 50		> 50	> 50	2.1 to 4 (≈ 3.77 to 7.17 µM)	> 50	> 50	25 to 49	> 50	2.1 to 4 (≈ 3.77 to 7.17 µM)
COCCO[C@@H](Cn1c(=O)n([C@H]2CCN(C)C2=O)c(=O)c2c(C)c(-n3cccn3)sc21)c1cc(F)ccc1OC [Compound I-43, 1-((R)-2-(5-fluoro-2-methoxyphenyl)-2-(2-methoxy-ethoxy)ethyl)-5-methyl-3-((S)-1-methyl-2-oxopyrrolidin-3-yl)-6-(1H-pyrazol-1-yl)thieno[2,3-d]pyrimidine-2,4(1H,3H)-dione]	D (provided a compound having <25% control of barley powdery mildew)	> 50	0.01 to 0.1	> 50	2.1 to 4 (≈ 3.67 to 7 µM)	> 50		> 50	> 50	2.1 to 4 (≈ 3.67 to 7 µM)	> 50	> 50	70 to 84	> 50	2.1 to 4 (≈ 3.67 to 7 µM)
COc1ccc(F)cc1[C@H](Cn1c(=O)n([C@@H]2CCNC2=O)c(=O)c2c(C)c(-n3nccn3)sc21)OCCO [Compound I-81, 1-((R)-2-(5-fluoro-2-methoxyphenyl)-2-(2-hydroxy-ethoxy)ethyl)-5-methyl-3-((R)-2-oxopyrrolidin-3-yl)-6-(2H-1,2,3-triazol-2-yl)thieno[2,3-d]pyrimidine-2,4(1H,3H)-dione]	D (provided a compound having <25% control of barley powdery mildew)	2 (≈ 3.67 µM)	0.0007 to 0.002	2 (≈ 3.67 µM)		2 (≈ 3.67 µM)	0.002 to 0.01	10 (≈ 18.4 µM)	10 (≈ 18.4 µM)		> 50	10 (≈ 18.4 µM)	25 to 49	10 (≈ 18.4 µM)	
COc1ccc(F)cc1[C@H](Cn1c(=O)n([C@@H]2CCNC2=O)c(=O)c2c(C)c(-n3nccn3)sc21)OCCC#N [Compound I-107, 3-((R)-1-(5-fluoro-2-methoxyphenyl)-2-(5-methyl-2,4-dioxo-3-((R)-2-oxopyrrolidin-3-yl)-6-(2H-1,2,3-triazol-2-yl)-3,4-dihydrothieno[2,3-d]pyrimidin-1(2H)-yl)ethoxy)propanenitrile]	C (provided a compound having from 25 to 49% control of barley powdery mildew)	2 (≈ 3.61 µM)	0.0007 to 0.002	2 (≈ 3.61 µM)		2 (≈ 3.61 µM)	0.002 to 0.01	> 50	10 (≈ 18.1 µM)		> 50	10 (≈ 18.1 µM)	50 to 69	2 (≈ 3.61 µM)	
COc1ccc(F)cc1[C@H](Cn1c(=O)n([C@@H]2CCCNC2=O)c(=O)c2c(C)c(-n3nccn3)sc21)OCCC(=O)O [Compound I-178, 3-((R)-1-(5-fluoro-2-methoxyphenyl)-2-(5-methyl-2,4-dioxo-3-((R)-2-oxopiperidin-3-yl)-6-(2H-1,2,3-triazol-2-yl)-3,4-dihydrothieno[2,3-d]pyrimidin-1(2H)-yl)ethoxy)propanoic acid]	D (provided a compound having <25% control of barley powdery mildew)	> 50	0.0007 to 0.002	> 50		10 (≈ 17 µM)	0.01 to 0.1	> 50	10 (≈ 17 µM)		> 50	> 50	25 to 49	2 (≈ 3.41 µM)	
